# Literature values, collected in patent US7074797B2, “Pyrazolopyrimidines as CRF receptor antagonists” (Neurocrine Biosciences, Inc., priority 1996, dated 2006).
# No end group written: not given here.
# Key:
# Rats [1] = settings: central administration
# Rats [2] = settings: ICV, animals previously familiarized with the apparatus, fifteen minute session
substance,measurement,setting,value
"CRF: corticotropin-releasing factor, a 41-amino acid peptide (SEEPPISLDLTFHLLREVLEMARAEQLAQQAHSNRKLMEII-NH2; ends and bridges not checked; UniProt P06850 154-194, looked up)",exploration in the elevated plus maze,Rats [1],suppresses exploration
same,latency to emerge from the small chamber,Rats [2],increases
same,mean time spent in the chamber,Rats [2],increases
